US20200262813A1, “1,5,7-TRISUBSTITUTED ISOQUINOLINE DERIVATIVES, PREPARATION THEREOF, AND USE THEREOF IN MEDICINES” (SHANGHAI HAIYAN PHARMACEUTICAL TECHNOLOGY CO., LTD., priority 2016, published 2020)
Where two headings read alike, the source gives them in different places.

What was measured:
Pfeiffer cells = experiment: Cell proliferation test (cell counting kit-8, 6 days); assay type: cell-based; conditions: 6 days' growth
Experimental: Cells were harvested by centrifuge and densities were determined using a CounterStar cell counter. Appropriate number of cells were plated in a 96-well culture plate and incubated overnight. Compounds to be tested were 1:3 diluted for 8 gradient points and added into corresponding wells. After 6 days' growth, cell counting kit-8 (Dojindo) was used to detect cell viability and absorbance values were read on Tecan infinite pro.

[1] = molecular target: Recombinant PRC2 (EZH2-Y641F) (Homo sapiens, UniProt Q15910, Y641F); experiment: In vitro methyltransferase activity test (LANCE Ultra); conditions: LANCE Ultra detection, 3 hours reaction;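 further: compounds tested as an 8-point threefold dilution series, fluorescence read after 1 h detection step at room temperature, IC50 derived from a four-parameter curve fit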
Recombinant PRC2 (EZH2-Y641F), sequence (Q15910 whole entry Y641F): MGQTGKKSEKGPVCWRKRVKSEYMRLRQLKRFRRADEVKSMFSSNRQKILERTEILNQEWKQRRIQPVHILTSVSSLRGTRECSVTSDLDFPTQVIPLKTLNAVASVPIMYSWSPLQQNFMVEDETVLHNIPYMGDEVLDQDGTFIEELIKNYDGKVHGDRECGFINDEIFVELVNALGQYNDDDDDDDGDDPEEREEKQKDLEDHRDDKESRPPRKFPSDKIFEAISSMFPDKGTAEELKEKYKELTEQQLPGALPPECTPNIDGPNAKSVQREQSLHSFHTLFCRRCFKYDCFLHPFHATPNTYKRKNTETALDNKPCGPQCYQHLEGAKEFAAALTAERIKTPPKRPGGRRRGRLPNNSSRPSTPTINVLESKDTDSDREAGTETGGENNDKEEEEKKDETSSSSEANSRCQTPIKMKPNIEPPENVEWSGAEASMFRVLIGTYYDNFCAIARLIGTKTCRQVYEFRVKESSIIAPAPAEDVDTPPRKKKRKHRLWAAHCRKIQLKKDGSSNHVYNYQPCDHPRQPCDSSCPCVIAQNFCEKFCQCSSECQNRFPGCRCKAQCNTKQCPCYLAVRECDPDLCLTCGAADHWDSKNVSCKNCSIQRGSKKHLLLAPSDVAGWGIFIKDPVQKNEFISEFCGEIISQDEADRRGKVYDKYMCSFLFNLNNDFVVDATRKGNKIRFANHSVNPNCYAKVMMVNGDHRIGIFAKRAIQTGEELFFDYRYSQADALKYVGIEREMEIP
Recombinant PRC2 (EZH2-Y641F), sequence (O75530 whole entry partner): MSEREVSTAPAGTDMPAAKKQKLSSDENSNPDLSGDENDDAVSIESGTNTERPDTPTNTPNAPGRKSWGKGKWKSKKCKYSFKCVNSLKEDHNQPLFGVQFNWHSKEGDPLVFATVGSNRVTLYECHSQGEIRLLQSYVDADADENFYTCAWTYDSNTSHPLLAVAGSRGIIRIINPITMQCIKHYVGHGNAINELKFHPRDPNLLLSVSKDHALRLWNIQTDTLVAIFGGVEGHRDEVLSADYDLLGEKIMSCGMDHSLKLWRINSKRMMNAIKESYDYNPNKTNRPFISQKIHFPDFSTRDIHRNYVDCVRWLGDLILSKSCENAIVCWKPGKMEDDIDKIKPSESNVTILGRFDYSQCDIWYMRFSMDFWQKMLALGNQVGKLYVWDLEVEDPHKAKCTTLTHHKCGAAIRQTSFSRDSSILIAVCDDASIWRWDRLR
Recombinant PRC2 (EZH2-Y641F), sequence (Q15022 whole entry partner): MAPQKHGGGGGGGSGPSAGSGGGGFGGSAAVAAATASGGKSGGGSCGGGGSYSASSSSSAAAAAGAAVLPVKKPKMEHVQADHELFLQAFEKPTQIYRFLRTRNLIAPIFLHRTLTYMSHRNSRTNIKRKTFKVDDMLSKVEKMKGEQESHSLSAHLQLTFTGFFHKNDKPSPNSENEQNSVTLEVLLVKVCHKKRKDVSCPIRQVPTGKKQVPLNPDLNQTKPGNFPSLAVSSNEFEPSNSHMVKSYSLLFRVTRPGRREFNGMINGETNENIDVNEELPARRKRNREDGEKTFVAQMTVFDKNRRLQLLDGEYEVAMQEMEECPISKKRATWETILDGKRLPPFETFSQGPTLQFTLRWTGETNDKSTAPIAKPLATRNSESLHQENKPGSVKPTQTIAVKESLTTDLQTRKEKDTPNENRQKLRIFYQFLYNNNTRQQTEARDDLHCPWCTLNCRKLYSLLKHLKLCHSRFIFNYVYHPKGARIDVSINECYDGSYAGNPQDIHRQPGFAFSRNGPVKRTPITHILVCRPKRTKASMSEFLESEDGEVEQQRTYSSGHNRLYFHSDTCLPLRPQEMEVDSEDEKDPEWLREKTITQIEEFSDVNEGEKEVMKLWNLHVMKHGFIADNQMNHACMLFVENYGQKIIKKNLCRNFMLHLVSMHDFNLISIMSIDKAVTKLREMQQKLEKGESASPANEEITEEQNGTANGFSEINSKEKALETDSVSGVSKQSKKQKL
Recombinant PRC2 (EZH2-Y641F), sequence (Q09028 whole entry partner): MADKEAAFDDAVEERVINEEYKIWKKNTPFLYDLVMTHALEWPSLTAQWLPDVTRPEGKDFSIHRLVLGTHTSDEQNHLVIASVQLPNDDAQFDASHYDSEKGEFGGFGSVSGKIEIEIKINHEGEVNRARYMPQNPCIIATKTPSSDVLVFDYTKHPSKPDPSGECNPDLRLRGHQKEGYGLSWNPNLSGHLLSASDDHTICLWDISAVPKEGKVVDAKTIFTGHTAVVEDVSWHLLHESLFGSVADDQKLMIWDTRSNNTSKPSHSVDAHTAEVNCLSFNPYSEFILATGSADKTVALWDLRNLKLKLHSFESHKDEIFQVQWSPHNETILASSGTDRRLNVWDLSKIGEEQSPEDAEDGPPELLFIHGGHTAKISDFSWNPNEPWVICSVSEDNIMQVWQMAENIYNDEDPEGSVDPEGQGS
Recombinant PRC2 (EZH2-Y641F), sequence (Q6ZN18 whole entry partner): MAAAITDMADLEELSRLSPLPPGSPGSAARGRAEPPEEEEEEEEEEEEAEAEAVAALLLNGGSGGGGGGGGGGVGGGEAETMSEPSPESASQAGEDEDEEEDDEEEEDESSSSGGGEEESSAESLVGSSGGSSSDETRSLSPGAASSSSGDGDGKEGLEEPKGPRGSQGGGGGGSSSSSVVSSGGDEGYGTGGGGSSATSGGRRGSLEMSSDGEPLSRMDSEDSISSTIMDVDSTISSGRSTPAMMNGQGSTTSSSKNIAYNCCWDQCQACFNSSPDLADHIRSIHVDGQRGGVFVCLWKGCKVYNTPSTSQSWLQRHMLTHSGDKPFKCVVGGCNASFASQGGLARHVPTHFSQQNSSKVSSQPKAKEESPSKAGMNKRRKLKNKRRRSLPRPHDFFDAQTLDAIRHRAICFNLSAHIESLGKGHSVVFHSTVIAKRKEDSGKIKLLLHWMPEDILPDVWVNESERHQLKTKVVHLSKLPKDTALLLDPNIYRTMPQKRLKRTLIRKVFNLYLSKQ

[2] = EZH2 Y641F IC50, Recombinant PRC2 (EZH2-Y641F)
[3] = read-out: EZH2 Y641F IC50, Recombinant PRC2 (EZH2-Y641F)

IC50 [1, 2] | IC50 [1, 3] | SMILES | IC50 (Pfeiffer cells; Homo sapiens, Pfeiffer, 144 h) | IC50 (Pfeiffer cells)
0.084 µM |  | CCN(c1cc(-c2ccc(CN3CCN(C)C(=O)C3)nc2)cc2c(NCc3c(C)cc(C)[nH]c3=O)nccc12)C1CCOCC1 [Compound Z-114] | 0.788 µM | 
0.047 µM |  | CCN(c1cc(-c2cnc(CN3CCN(C)CC3)nc2)cc2c(NCc3c(C)cc(C)[nH]c3=O)nccc12)C1CCOCC1 [Compound Z-115] | 0.706 µM | 
0.041 µM |  | CCN(c1cc(-c2cnc(CN3CCN(C)CC3)c(F)c2)cc2c(NCc3c(C)cc(C)[nH]c3=O)nccc12)C1CCOCC1 [Compound Z-116] | 0.525 µM | 
0.085 µM |  | CCN(c1cc(-c2ccc(CN3CCN(C)CC3)nc2)cc2c(NCc3c(C)cc(C)[nH]c3=O)nccc12)C1CCOCC1 [Compound Z-118] | 0.973 µM | 
0.021 µM |  | CCN(c1cc(-c2ccc(N3CCN(C)CC3)nc2)cc2c(NCc3c(OC)cc(C)[nH]c3=O)nccc12)C1CCC(N(C)C)CC1 (stereo not shown) [Compound Z-193] | 0.62 µM | 
0.016 µM |  | CCN(c1cc(-c2ccc(CN3CCN(C)CC3)nc2)cc2c(NCc3c(C)cc(C)[nH]c3=O)nccc12)C1CCC(O)CC1 (stereo not shown) [Compound Z-196] | 0.583 µM | 
0.028 µM |  | CCN(c1c(F)c(-c2ccc(N3CCN(C)CC3)nc2)cc2c(NCc3c(C)cc(C)[nH]c3=O)nccc12)C1CCC(N(C)C)CC1 (stereo not shown) [Compound Z-218, 3-((5-((4-(dimethylamino)cyclohexyl) (ethyl)amino)-6-fluoro-7-(6-(4-methylpiperazin-1-yl)pyridin-3-yl)isoquinolin-1-ylamino)methyl)-4,6-dimethyl-2(1H)-one] | 0.212 µM | 
0.031 µM |  | CCN(c1cc(-c2ccc(N3CCN(C)CC3)nc2)cc2c(NCc3c(C)cc(C)[nH]c3=O)nccc12)C1CCNC(C)C1 (stereo not shown) [Compound Z-220, 3-((5-(ethyl (2-methylpiperidin-4-yl)amino)-7-(6-(4-methylpiperazin-1-yl)pyridin-3-yl)isoquinolin-1-ylamino)methyl)-4,6-dimethylpyridine-2(1H)-one] | 0.651 µM | 
0.36 µM |  | CCN(c1c(F)c(-c2ccc(N3CCN(C)CC3)nc2)cc2c(NCc3c(C)cc(C)[nH]c3=O)nccc12)C1CCOCC1 [Compound Z-224, 3-((5-(ethyl(tetrahydro-2H-pyran-4-yl)amino)-6-fluoro-7-(6-(4-methylpiperazin-1-yl)pyridin-3-yl)isoquinolin-1-ylamino)methyl)-4,6-dimethyl-2(1H)-one] | 0.605 µM | 

The remaining lines, values behind:

SMILES | IC50 [1, 2] | IC50 [1, 3] | IC50 (Pfeiffer cells; Homo sapiens, Pfeiffer, 144 h) | IC50 (Pfeiffer cells)
CCN(c1cc(-c2ccc(CN3CCOCC3)nc2)cc2c(NCc3c(C)cc(C)[nH]c3=O)nccc12)C1CCOCC1 [Compound Z-113] | 0.153 µM |  | 0.713 µM | 
CCN(c1cc(-c2cnc(CN3CCOCC3)nc2)cc2c(NCc3c(C)cc(C)[nH]c3=O)nccc12)C1CCOCC1 [Compound Z-121] | 0.474 µM |  | 0.646 µM | 
CCN(c1cc(-c2cnc(CN3CCOCC3)c(F)c2)cc2c(NCc3c(C)cc(C)[nH]c3=O)nccc12)C1CCOCC1 [Compound Z-122] | 0.439 µM |  | 0.833 µM | 
CCN(c1cc(-c2cncc(F)c2)cc2c(NCc3c(C)cc(C)[nH]c3=O)nccc12)C1CCN(C(C)C)CC1 [Compound Z-125] | 0.022 µM |  | 0.772 µM | 
CCN(c1cc(-c2ccccn2)cc2c(NCc3c(C)cc(C)[nH]c3=O)nccc12)C1CCN(C(C)C)CC1 [Compound Z-126] | 0.156 µM |  | 0.765 µM | 
CCN(c1cc(Cl)cc2c(NCc3c(C)cc(C)[nH]c3=O)nccc12)C1CCC(N(C)C)CC1 (stereo not shown) [Compound Z-132] |  | 0.107 µM |  | 0.301 µM
CCN(c1cc(Cl)cc2c(NCc3c(C)cc(C)[nH]c3=O)nccc12)[C@H]1CC[C@@H](N(C)C)CC1 [Compound Z-136] | 0.049 µM |  | 0.465 µM | 
CCN(c1cc(C#CCN2CCOCC2)cc2c(NCc3c(C)cc(C)[nH]c3=O)nccc12)C1CCC(N(C)C)CC1 (stereo not shown) [Compound Z-177] | 0.031 µM |  | 0.444 µM | 
CCN(c1cc(C#CCN2CCOCC2)cc2c(NCc3c(C)cc(C)[nH]c3=O)nccc12)[C@H]1CC[C@@H](N(C)C)CC1 [Compound Z-179] |  | 0.015 µM |  | 0.54 µM
CCN(c1cc(C#CCN2CCN(C)CC2)cc2c(NCc3c(C)cc(C)[nH]c3=O)nccc12)C1CCC(N(C)C)CC1 (stereo not shown) [Compound Z-180] | 0.013 µM |  | 0.38 µM | 
CCN(c1cc(N(C)c2cccnc2)cc2c(NCc3c(C)cc(C)[nH]c3=O)nccc12)[C@H]1CC[C@H](N(C)C)CC1 [Compound Z-183] | 0.128 µM |  | 0.395 µM | 
CCN(c1cc(N(C)c2cccnc2)cc2c(NCc3c(C)cc(C)[nH]c3=O)nccc12)C1CCC(N(C)C)CC1 (stereo not shown) [Compound Z-186] | 0.067 µM |  | 0.251 µM | 
CCN(c1cc(-c2cnc(N3CCOCC3)nc2)cc2c(NCc3c(OC)cc(C)[nH]c3=O)nccc12)C1CCC(N(C)C)CC1 (stereo not shown) [Compound Z-192] | 0.042 µM |  | 0.393 µM | 
CCN(c1cc(Cl)cc2c(NCc3c(OC)cc(C)[nH]c3=O)nccc12)C1CCC(N(C)C)CC1 (stereo not shown) [Compound Z-197] | 0.051 µM |  | 0.371 µM | 
CCN(c1cc(Cl)cc2c(NCc3c(C)cc(C)[nH]c3=O)nccc12)C1CCNCC1 [Compound Z-201] | 0.059 µM |  | 0.133 µM | 
CCN(c1cc(OCCOC)cc2c(NCc3c(C)cc(C)[nH]c3=O)nccc12)C1CCC(N(C)C)CC1 (stereo not shown) [Compound Z-206] | 0.115 µM |  | 0.234 µM | 
CCN(c1cc(Cl)cc2c(NCc3c(OC)cc(C)[nH]c3=O)nccc12)C1CCNCC1 [Compound Z-208] | 0.009 µM |  | 0.155 µM | 
CCN(c1cc(Cl)cc2c(NCc3c(C)cc(C)[nH]c3=O)nccc12)C1CC2CCC(C1)N2 (stereo not shown) [Compound Z-209] | 0.01 µM |  | 0.25 µM | 
CCOc1cc(N(CC)C2CCC(N(C)C)CC2)c2ccnc(NCc3c(C)cc(C)[nH]c3=O)c2n1 (stereo not shown) [Compound Z-222, 3-((4-((4-(dimethylamino)cyclohexyl) (ethyl)amino)-2-ethoxy-1,7-naphthyridin-8-ylamino)methyl)-4,6-dimethyl-2(1H)-one] | 0.143 µM |  | 0.484 µM | 
CCN(c1c(F)c(-c2ccc(N3CCN(C)CC3)nc2)cc2c(NCc3c(C)cc(C)nc3O)nccc12)[C@H]1CC[C@H](N(C)C)CC1 [Compound Z-232, 3-((5-(((1R,4R)-4-(dimethylamino)cyclohexyl) (ethyl)amino)-6-fluoro-7-(6-(4-methylpiperazin-1-yl)pyridin-3-yl)isoquinolin-1-ylamino)methyl)-4,6-dimethyl-2(1H)-one] | 0.026 µM |  | 0.188 µM | 
